Laboratory results: patent US9234000B2, “Benzylamine derivatives as inhibitors of plasma kallikrein” (KalVista Pharmaceuticals Limited, priority 2011, dated 2016)
In brackets after ≈: the same amount, converted by molar mass.

Legend:
Human KLK1 = Human KLK1 (Homo sapiens (Human), UniProt P06870); experiment: Determination of the IC50 for KLK1; assay type: biochemical; conditions: Human KLK1, 37° C., substrate H-DVal-Leu-Arg-AFC; Table 12
Procedure, shortened: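 Test compound at various concentrations was incubated with human KLK1 and the fluorogenic substrate H-DVal-Leu-Arg-AFC at 37° C. Absorbance change at 410 nm gave the initial reaction rate, from which IC50 was obtained.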

Human plasma kallikrein = Human plasma kallikrein (Homo sapiens (Human), UniProt P03952); experiment: Determination of the IC50 for plasma kallikrein; assay type: biochemical; conditions: fluorogenic substrate H-DPro-Phe-Arg-AFC, 37° C., read-out: IC50 (human PKal)
Human plasma kallikrein, sequence (P03952 391-638): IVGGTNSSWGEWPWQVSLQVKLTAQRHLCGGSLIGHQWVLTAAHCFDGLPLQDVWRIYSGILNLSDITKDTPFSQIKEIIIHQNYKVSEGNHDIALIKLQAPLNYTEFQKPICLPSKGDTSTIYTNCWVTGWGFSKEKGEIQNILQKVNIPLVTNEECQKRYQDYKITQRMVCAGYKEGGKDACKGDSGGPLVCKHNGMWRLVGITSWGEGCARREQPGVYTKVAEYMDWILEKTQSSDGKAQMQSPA
Human plasma kallikrein, sequence (P03952 20-390 partner): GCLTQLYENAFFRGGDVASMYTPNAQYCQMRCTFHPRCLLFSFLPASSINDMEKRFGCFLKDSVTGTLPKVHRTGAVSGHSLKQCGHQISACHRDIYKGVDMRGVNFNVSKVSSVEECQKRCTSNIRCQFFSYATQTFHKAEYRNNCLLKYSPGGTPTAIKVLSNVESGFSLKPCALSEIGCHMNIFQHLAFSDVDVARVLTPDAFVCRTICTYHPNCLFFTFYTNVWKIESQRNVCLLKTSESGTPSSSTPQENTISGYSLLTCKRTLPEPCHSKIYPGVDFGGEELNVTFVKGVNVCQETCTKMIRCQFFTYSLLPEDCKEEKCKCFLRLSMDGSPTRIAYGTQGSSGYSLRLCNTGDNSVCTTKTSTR
Procedure, shortened: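 Residual activity (initial rate, absorbance at 410 nm) gave the IC50. Reactions at 37° C combined human plasma kallikrein, substrate H-DPro-Phe-Arg-AFC and a range of inhibitor concentrations.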

physchem = conditions: for solubility in PO4 buffer: pH 7
Procedure: Determination of the Kinetic Solubility in Phosphate Buffer
After shaking for approximately 30 seconds the reduction in light transmission of these samples, at 650 nm, was measured (Molecular Devices Spectromax UV/visible spectrophotometer). A second measurement was taken at approximately 30 seconds later.

Human KLK1, sequence (P06870 25-262): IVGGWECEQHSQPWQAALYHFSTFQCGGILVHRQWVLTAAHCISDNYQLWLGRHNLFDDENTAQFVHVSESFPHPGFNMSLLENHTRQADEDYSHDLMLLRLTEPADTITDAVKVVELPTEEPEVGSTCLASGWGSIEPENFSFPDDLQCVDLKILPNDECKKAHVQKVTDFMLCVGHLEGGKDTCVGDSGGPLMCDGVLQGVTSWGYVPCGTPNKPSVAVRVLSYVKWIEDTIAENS

| SMILES | IC50 (Human KLK1) [µM] | IC50 (Human plasma kallikrein) [µM] | solubility in PO4 buffer (physchem) [µM] | solubility (physchem; pH 7, aqueous buffer, kinetic from dmso stock) [µM] |
| --- | --- | --- | --- | --- |
| CCOc1ccc(C[C@@H](N)C(=O)N[C@@H](Cc2ccccc2)C(=O)NCc2ccc(CN)c(F)c2)cc1 [Example 6, (R)-2-Amino-N-[(S)-1-(4-aminomethyl-3-fluoro-benzylcarbamoyl)-2-phenyl-ethyl]-3-(4-ethoxy-phenyl)-propionamide] | > 1 | 1 | > 235 |  |
| CCOc1ccc(C[C@@H](NS(=O)(=O)c2ccccc2)C(=O)N[C@@H](Cc2ccccc2)C(=O)NCc2ccc(CN)cc2)cc1 [Example 15, (R)-N-[(S)-1-(4-Aminomethyl-benzylcarbamoyl)-2-phenyl-ethyl]-2-benzenesulfonylamino-3-(4-ethoxy-phenyl)-propionamide] | 2.2 | 0.47 | > 235 |  |
| CCOc1ccc(C[C@@H](NCC(=O)O)C(=O)N[C@@H](Cc2ccccc2)C(=O)NCc2ccc(CN)cc2)cc1 [Example 17, [(R)-1-[(S)-1-(4-Aminomethyl-benzylcarbamoyl)-2-phenyl-ethylcarbamoyl]-2-(4-ethoxy-phenyl)-ethylamino]-acetic acid] | > 10 | 5.8 | > 235 |  |
| CCOc1ccc(C[C@@H](NC(=O)CC)C(=O)N[C@@H](Cc2ccccc2)C(=O)N(C)Cc2ccc(CN)cc2)cc1 [Example 24, (S)-N-(4-Aminomethyl-benzyl)-2-[(R)-3-(4-ethoxy-phenyl)-2-propionylamino-propionylamino]-N-methyl-3-phenyl-propionamide] | > 10 | 0.45 | > 235 |  |
| CCOc1ccc(C[C@@H](N)C(=O)N(C)[C@@H](Cc2ccccc2)C(=O)NCc2ccc(CN)cc2)cc1 [Example 25, (R)-2-Amino-N-[(S)-1-(4-aminomethyl-benzylcarbamoyl)-2-phenyl-ethyl]-3-(4-ethoxy-phenyl)-N-methyl-propionamide] | 6.3 | 0.34 | > 235 |  |
| CCOc1ccc(C[C@@H](NC(=O)CC)C(=O)N(C)[C@@H](Cc2ccccc2)C(=O)NCc2ccc(CN)cc2)cc1 [Example 26, (S)-N-(4-Aminomethyl-benzyl)-2-{[(R)-3-(4-ethoxy-phenyl)-2-propionylamino-propionyl]-methyl-amino}-3-phenyl-propionamide] | > 10 | 0.081 | > 235 |  |
| CCOc1ccc(C[C@@H](NC)C(=O)N[C@@H](Cc2ccccc2)C(=O)NCc2ccc(CN)cc2)cc1 [Example 27, (R)-N-[(S)-1-(4-Aminomethyl-benzylcarbamoyl)-2-phenyl-ethyl]-3-(4-ethoxy-phenyl)-2-methylamino-propionamide] | 4 | 1.3 | > 235 |  |
| CCOc1ccc(C[C@H](C(=O)N[C@@H](Cc2ccccc2)C(=O)NCc2ccc(CN)cc2)N(C)C(=O)CC)cc1 [Example 31, (S)-N-(4-Aminomethyl-benzyl)-2-[(R)-3-(4-ethoxy-phenyl)-2-(methyl-propionyl-amino)-propionylamino]-3-phenyl-propionamide] | 9.6 | 4.3 | > 235 |  |
| CCOc1ccc(C[C@@H](NC(=O)CC)C(=O)N(C)[C@@H](Cc2ccccc2)C(=O)NCc2ccc(CN)c(F)c2)cc1 [Example 32, (S)-N-(4-Aminomethyl-3-fluoro-benzyl)-2-{[(R)-3-(4-ethoxy-phenyl)-2-propionylamino-propionyl]-methyl-amino}-3-phenyl-propionamide] | > 10 | 0.2 | > 235 |  |
| CCCN[C@H](Cc1ccc(OCC)cc1)C(=O)N(C)[C@@H](Cc1ccccc1)C(=O)NCc1ccc(CN)cc1 [Example 35, (R)-N-[(S)-1-(4-Aminomethyl-benzylcarbamoyl)-2-phenyl-ethyl]-3-(4-ethoxy-phenyl)-N-methyl-2-propylamino-propionamide] | > 10 | 2 | > 235 |  |
| CCOc1ccc(C[C@@H](NC(C)=O)C(=O)N(C)[C@@H](Cc2ccccc2)C(=O)NCc2ccc(CN)cc2)cc1 [Example 39, (R)-2-Acetylamino-N-[(S)-1-(4-aminomethyl-benzylcarbamoyl)-2-phenyl-ethyl]-3-(4-ethoxy-phenyl)-N-methyl-propionamide] | > 10 | 0.31 | > 235 |  |

Next, values leading:

| IC50 (Human KLK1) [µM] | IC50 (Human plasma kallikrein) [µM] | solubility in PO4 buffer (physchem) [µM] | solubility (physchem; pH 7, aqueous buffer, kinetic from dmso stock) [µM] | SMILES |
| --- | --- | --- | --- | --- |
| > 1 | 2 | > 235 |  | CN(C)[C@H](CC1CCCCC1)C(=O)N[C@@H](Cc1ccccc1)C(=O)NCc1ccc(CN)cc1 [Example 9, (R)-N-[(S)-1-(4-Aminomethyl-benzylcarbamoyl)-2-phenyl-ethyl]-3-cyclohexyl-2-dimethylamino-propionamide] |
| 3.7 | 0.4 | > 235 |  | CCOc1ccc(C[C@@H](N)C(=O)N[C@@H](Cc2ccc(Cl)c(Cl)c2)C(=O)NCc2ccc(CN)cc2)cc1 [Example 14, (R)-2-Amino-N-[(S)-1-(4-aminomethyl-benzylcarbamoyl)-2-(3,4-dichloro-phenyl)-ethyl]-3-(4-ethoxy-phenyl)-propionamide] |
| 1.6 | 8.8 | > 235 |  | NCc1ccc(CNC(=O)[C@H](Cc2ccc(Cl)c(Cl)c2)NC(=O)[C@H](N)Cc2ccc(C(F)(F)F)cc2)cc1 [Example 18, (R)-2-Amino-N-[(S)-1-(4-aminomethyl-benzylcarbamoyl)-2-(3,4-dichloro-phenyl)-ethyl]-3-(4-trifluoromethyl-phenyl)-propionamide] |
| 3.7 | 0.73 | > 235 |  | NCc1ccc(CNC(=O)[C@H](Cc2ccc(Cl)c(Cl)c2)NC(=O)[C@H](N)CC2CCCCC2)cc1 [Example 20, (R)-2-Amino-N-[(S)-1-(4-aminomethyl-benzylcarbamoyl)-2-(3,4-dichloro-phenyl)-ethyl]-3-cyclohexyl-propionamide] |
| 10 | 5.1 |  | 12 (≈ 6.74 µg/mL) | CCC(=O)N[C@H](CC1CCCCC1)C(=O)N[C@@H](Cc1ccc(Cl)c(Cl)c1)C(=O)NCc1ccc(CN)cc1 [Example 21, (R)-N-[(S)-1-(4-Aminomethyl-benzylcarbamoyl)-2-(3,4-dichloro-phenyl)-ethyl]-3-cyclohexyl-2-propionylamino-propionamide] |
| > 10 | 0.3 | > 235 |  | CN(CC(=O)O)[C@H](CC1CCCCC1)C(=O)N[C@@H](Cc1ccccc1)C(=O)NCc1ccc(CN)cc1 [Example 29, ({(R)-1-[(S)-1-(4-Aminomethyl-benzylcarbamoyl)-2-phenyl-ethylcarbamoyl]-2-cyclohexyl-ethyl}-methyl-amino)-acetic acid] |
| > 10 | 0.58 | > 235 |  | CN(C(=O)[C@@H](CC1CCCCC1)NCC(=O)O)[C@@H](Cc1ccccc1)C(=O)NCc1ccc(CN)cc1 [Example 30, ((R)-1-{[(S)-1-(4-Aminomethyl-benzylcarbamoyl)-2-phenyl-ethyl]-methyl-carbamoyl}-2-cyclohexyl-ethylamino)-acetic acid] |
| > 10 | 1.1 | > 235 |  | CN[C@H](CC1CCCCC1)C(=O)N[C@@H](Cc1ccccc1)C(=O)NCc1ccc(CN)cc1 [Example 33, (R)-N-[(S)-1-(4-Aminomethyl-benzylcarbamoyl)-2-phenyl-ethyl]-3-cyclohexyl-2-methylamino-propionamide] |
| 7.7 | 1.4 | > 235 |  | CN(C(=O)[C@@H](CC1CCCCC1)NCC(=O)O)[C@@H](Cc1ccccc1)C(=O)NCc1ccc(CN)c(F)c1 [Example 34, ((R)-1-{[(S)-1-(4-Aminomethyl-3-fluoro-benzylcarbamoyl)-2-phenyl-ethyl]-methyl-carbamoyl}-2-cyclohexyl-ethylamino)-acetic acid] |
| > 10 | 8.2 | > 235 |  | CN(Cc1ccc(CN)cc1)C(=O)[C@H](Cc1ccccc1)NC(=O)[C@@H](CC1CCCCC1)NCC(=O)O [Example 36, ((R)-1-{(S)-1-[(4-Aminomethyl-benzyl)-methyl-carbamoyl]-2-phenyl-ethylcarbamoyl}-2-cyclohexyl-ethylamino)-acetic acid] |
| > 10 | 0.91 | > 235 |  | CCCN[C@H](CC1CCCCC1)C(=O)N[C@@H](Cc1ccccc1)C(=O)NCc1ccc(CN)cc1 [Example 37, (R)-N-[(S)-1-(4-Aminomethyl-benzylcarbamoyl)-2-phenyl-ethyl]-3-cyclohexyl-2-propylamino-propionamide] |
| > 10 | 1.8 | > 235 |  | CN[C@H](CC1CCCCC1)C(=O)N[C@@H](Cc1ccccc1)C(=O)NCc1ccc(CN)c(F)c1 [Example 40, (R)-N-[(S)-1-(4-Aminomethyl-3-fluoro-benzylcarbamoyl)-2-phenyl-ethyl]-3-cyclohexyl-2-methylamino-propionamide] |
| 2.5 | 1.3 | > 235 |  | CN[C@H](CC1CCCCC1)C(=O)N[C@@H](Cc1ccc(Cl)c(Cl)c1)C(=O)NCc1ccc(CN)c(F)c1 [Example 41, (R)-N-[(S)-1-(4-Aminomethyl-3-fluoro-benzylcarbamoyl)-2-(3,4-dichloro-phenyl)-ethyl]-3-cyclohexyl-2-methylamino-propionamide] |
